These molecules were tested on A2780 human ovarian cancer cells (assay: In vitro cell proliferation assay (CellTiter-Glo)). Conditions: 72 hours treatment.
Format: cell-based
Protocol: A2780 human ovarian and MCF7 human breast cancer cells (1250 cells/well) were seeded in white 384 well-plates in complete medium (RPMI 1640 or EMEM plus 10% Fetal bovine serum) and treated with compounds dissolved in 0.1% DMSO, 24 h after seeding. The cells were incubated at 37° C. and 5% CO2 and after 72 hours the plates were processed using CellTiter-Glo assay (Promega) following the manufacturer's instruction. CellTiter-Glo is a homogenous method based on the quantification of the ATP present, an indicator of metabolitically active cells. ATP is quantified using a system based on luciferase and D-luciferin resulting into light generation. The luminescent signal is proportional to the number of cells present in culture.
Briefly 25 μl/well reagent solution were added to each well and after 5 minutes shacking microplates were red by Envision (PerkinElmer) luminometer. The luminescent signal was proportional to the number of cells present in culture.
Inhibitory activity was evaluated comparing treated versus control data using Assay Explorer (MDL) program. IC50 was calculated using sigmoidal interpolation curve.

Compound | IC50 [nM]
CCc1cccc(CC)c1NC(=O)c1nn(C)c2c1CCc1cnc(Nc3ccc(C(N)=O)cc3OC)nc1-2 [Compound 13, 8-[(4-carbamoyl-2-methoxyphenyl)amino]-N-(2,6-diethylphenyl)-1-methyl-4,5-dihydro-1H-pyrazolo[4,3-h]quinazoline-3-carboxamide] | 100
CCc1cccc(CC)c1NC(=O)c1nn(C)c2c1CCc1cnc(NC3CCN(S(=O)(=O)CCNC)CC3)nc1-2 [Compound 56, N-(2,6-diethylphenyl)-1-methyl-8-[(1-{[2-(methylamino)ethyl]sulfonyl}piperidin-4-yl)amino]-4,5-dihydro-1H-pyrazolo[4,3-h]quinazoline-3-carboxamide] | 150
CCc1cccc(CC)c1NC(=O)c1nn(C)c2c1CCc1cnc(Nc3ccc(N4CCN(C)CC4)cc3OC)nc1-2 [Compound 5, N-(2,6-diethylphenyl)-8-{[2-methoxy-4-(4-methylpiperazin-1-yl)phenyl]amino}-1-methyl-4,5-dihydro-1H-pyrazolo[4,3-h]quinazoline-3-carboxamide] | 100
CCc1cccc(CC)c1NC(=O)c1nn(C)c2c1CCc1cnc(NC3CCN(S(C)(=O)=O)CC3)nc1-2 [Compound 57, N-(2,6-diethylphenyl)-1-methyl-8-{[1-(methylsulfonyl)piperidin-4-yl]amino}-4,5-dihydro-1H-pyrazolo[4,3-h]quinazoline-3-carboxamide] | 130

Second part, the molecule after the results:

IC50 [nM] | Compound
350 | CCc1cccc(CC)c1NC(=O)c1nn(C)c2c1CCc1cnc(Nc3ccc(N4CCN(C)CC4)cc3OC(F)(F)F)nc1-2 [Compound 3, N-(2,6-diethylphenyl)-1-methyl-8-{[4-(4-methylpiperazin-1-yl)-2-(trifluoromethoxy)phenyl]amino}-4,5-dihydro-1H-pyrazolo[4,3-h]quinazoline-3-carboxamide]
3400 | Cn1nc(C(=O)N(O)C2CCCCC2)c2c1-c1nc(NC3CCCC3)ncc1CC2 [Prior art compound, N-cyclohexyl-8-(cyclopentylamino)-N-hydroxy-1-methyl-4,5-dihydro-1H-pyrazolo[4,3-h]quinazoline-3-carboxamide, reference compound]
650 | CCc1cccc(CC)c1NC(=O)c1nn(C)c2c1CCc1cnc(NC3CCN(C(=O)CCNC)CC3)nc1-2 [Compound 66, N-(2,6-diethylphenyl)-1-methyl-8-{[1-(N-methyl-beta-alanyl)piperidin-4-yl]amino}-4,5-dihydro-1H-pyrazolo[4,3-h]quinazoline-3-carboxamide]
150 | CCc1cccc(CC)c1NC(=O)c1nn(C)c2c1CCc1cnc(Nc3ccc(C(=O)NC4CCN(C)CC4)cc3OC)nc1-2 [Compound 2, N-(2,6-diethylphenyl)-8-({2-methoxy-4-[(1-methylpiperidin-4-yl)carbamoyl]phenyl}amino)-1-methyl-4,5-dihydro-1H-pyrazolo[4,3-h]quinazoline-3-carboxamide]
140 | CCc1cccc(CC)c1NC(=O)c1nn(C)c2c1CCc1cnc(Nc3ccc(N(C)CCCN(C)C)cc3OC)nc1-2 [Compound 7, N-(2,6-diethylphenyl)-8-[(4-{[3-(dimethylamino)propyl](methyl)amino}-2-methoxyphenyl)amino]-1-methyl-4,5-dihydro-1H-pyrazolo[4,3-h]quinazoline-3-carboxamide]
